According to ChEMBL document CHEMBL5726111, “Substituted pyridinone compounds as MEK inhibitors” (2017):

Biological target: Dual specificity mitogen-activated protein kinase kinase 1 (Homo sapiens, UniProt Q02750)
Experiment: LANCE Ultra Assay: The LANCE Ultra assay kit was purchased from PerkinElmer. The ULight-MBP peptide, Europium labeled Antibody and LANCE Detection buffer were purchased from PerkinElmer. The APT and dimethylsulfoxide were purchased from Sigma-Aldrich. The 5× Kinase buffer were purchased from Invitrogen. […] A Mek1 kinase assay (LANCE, PerkinElmer) was developed for supporting compound profiling and lead optimization. […] Then the phosphorylated Erk1 was able to phosphorylate ULight-MBP peptide (PerkinElmer). The phosphorylated peptide was detected by Europium-anti-phospho-MBP (PerkinElmer). […] After quenching the reaction with […], 2 nM Europium-anti-phospho-MBP was added to the reaction mixture and incubated for 60 min, followed by a detection using EnVision Multilabel Plate Reader (PerkinElmer).

Sequence of Dual specificity mitogen-activated protein kinase kinase 1 (Q02750 whole entry): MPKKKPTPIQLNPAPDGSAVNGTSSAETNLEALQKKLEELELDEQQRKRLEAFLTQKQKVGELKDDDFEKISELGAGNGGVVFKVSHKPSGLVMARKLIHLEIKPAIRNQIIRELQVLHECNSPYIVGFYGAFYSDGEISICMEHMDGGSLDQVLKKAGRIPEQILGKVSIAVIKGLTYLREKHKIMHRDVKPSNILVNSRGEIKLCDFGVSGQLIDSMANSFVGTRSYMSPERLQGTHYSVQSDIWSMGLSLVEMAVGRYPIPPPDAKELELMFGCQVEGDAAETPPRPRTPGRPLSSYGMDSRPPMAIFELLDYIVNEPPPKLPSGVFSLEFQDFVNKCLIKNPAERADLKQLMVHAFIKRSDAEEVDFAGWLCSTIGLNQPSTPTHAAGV

- IC50: < 500 nM
SMILES: Cn1c(Nc2ccc(I)cc2F)c(C(=O)NOCCO)c2c(c1=O)CC(C)(C)C2
